Test results: paper PMC6813218 (Frontiers in Molecular Neuroscience, 2019)

Assays:
[1] = tested on: CB1R; parameters: method as in Laprairie et al., 2019; details: ref Laprairie et al., 2019; cited from earlier work
[2] = tested on: C57BL/6J mice; test: Tetrad: tail flick latency (anti-nociception); assay type: in vivo, mouse; details: for tail flick latency compared to vehicle: single agent i.p. (CP55940 0.1 mg/kg; indomethacin 2 mg/kg), 0.5, 1 and 4 h
Procedure: (§1) Seven-week old, male, C57BL/6J mice (mean weight 25.2 ± 0.5 g) were purchased from The Jackson Laboratory (Bar Harbor, ME, United States). Animals were group housed (5 per cage) with ad libitum access to food, water, and environmental enrichment and maintained on a 12 h light/dark cycle. […] All protocols were in accordance with the guidelines detailed by the Canadian Council on Animal Care (CCAC; Ottawa ON: Vol. 1, 2nd Ed., 1993; Vol. 2, 1984), approved by the Carleton Animal Care Committee at Dalhousie University. In keeping with the ARRIVE guidelines, power analyses were conducted to determine the minimum number of animals required for the study and animals were purchased – rather than bred – to limit animal waste, and all assessments of animal behavior were made by individuals blinded to treatment group ([Kilkenny et al., 2010]).
Anti-nociception was determined by assessing tail flick latency immediately prior to injection and 0.5, 1, and 4 h following injection. Mice were restrained with their tails placed ∼1 cm into water held at 52°C and the time until the tail was removed was recorded as tail flick latency (s). Observations were ended at 10 s.

[3] = tested on: C57BL/6J mice; test: Tetrad: catalepsy, ring holding assay; assay type: in vivo, mouse; details: for catalepsy: single agent i.p. (CP55940 0.1 mg/kg; indomethacin 2 mg/kg), 1 and 4 h
Procedure: as §1
Catalepsy was assessed in the ring holding assay immediately prior to injection and 1 and 4 h following injection. The mice were placed such that their forepaws clasped a 5 mm ring positioned 5 cm above the surface of the testing space. The length of time the ring was held was recorded (s). The trial was ended if the mouse turned its head or body, or made three consecutive escape attempts.

[4] = tested on: C57BL/6J mice; test: Tetrad: locomotion, open field test; assay type: in vivo, mouse
Procedure: as §1
Locomotion was assessed in the open field test immediately prior to injection and 1 and 4 h following injection. Mice were placed in an open space 90 cm × 60 cm and total distance was recorded for 5 min.

[5] = tested on: C57BL/6J mice; test: Tetrad: internal body temperature; assay type: in vivo, mouse; details: 0.5 and 1 h; for body temperature compared to vehicle: single agent i.p. (CP55940 0.1 mg/kg; indomethacin 2 mg/kg)
Procedure: as §1
Internal body temperature was measured via rectal thermometer immediately prior to injection and 0.5, 1, and 4 h following injection.

[6] = target: T1, hCB1R (Homo sapiens, UniProt P21554); test: [3H]CP55940 radioligand binding, CHO cell membranes; details: 0.7 nM [3H]CP55940; indomethacin between 10 nM and 10 μM, bell-shaped, greatest at 10 and 100 nM
Procedure: Binding was initiated by the addition of transfected human CB1R or CB2R CHO cell membranes (50 μg protein per well). All assays were performed at 37°C for 60 min before termination by the addition of ice-cold Tris binding buffer, followed by vacuum filtration using a 24-well sampling manifold (Brandel Cell Harvester; Brandel Inc., Gaithersburg, MD, United States) and Brandel GF/B filters that had been soaked in wash buffer at 4°C for at least 24 h. Each reaction well was washed six times with a 1.2 mL aliquot of Tris binding buffer. The filters were oven-dried for 60 min and then placed in 3 ml of scintillation fluid (Ultima Gold XR, PerkinElmer, Seer Green, Buckinghamshire, United Kingdom). Radioactivity was quantified by liquid scintillation spectrometry.

[7] = target: T2, hCB2R (Homo sapiens, UniProt P34972); test: PLCβ3 phosphorylation, in-cell western, HEK293A hCB2R-GFP2; assay type: cell-based; parameters: expressed in transfected cells; host or cells: HEK293A cells; HEK-CRE reporter cells for the cAMP luciferase assay; details: indomethacin alone
Procedure: (§2) Cells were fixed for 10 min at room temperature with 4% paraformaldehyde and washed three times with 0.1 M PBS for 5 min each. Cells were incubated with blocking solution (PBS, 20% Odyssey blocking buffer, and 0.1% TritonX-100) for 1 h at room temperature. […] Cells were washed three times with PBS for 5 min each. Cells were incubated in IR^CW700dye or IR^CW800dye (1:500; Rockland Immunochemicals) and washed three times with PBS for 5 min each. Analyses were conducted using the Odyssey Imaging system and software (version 3.0; Li-Cor).

[8] = tested on: ICR mice; parameters: method as in Wiley et al. (2006); details: indomethacin 10 or 30 mg/kg, AEA 30 mg/kg, ref Wiley et al. (2006); cited from earlier work
[9] = target: T1, hCB1R; assay type: cell-based; details: indomethacin alone
Procedure: (§3) Briefly, 48 h post-transfection cells were washed twice with cold PBS and suspended in BRET buffer [PBS supplemented with glucose (1 mg/mL), benzamidine (10 mg/mL), leupeptin (5 mg/mL), and a trypsin inhibitor (5 mg/mL)]. Cells were treated with compounds as indicated (PerkinElmer) and coelenterazine 400a substrate (50 μM; Biotium, Hayward, CA, United States) was added.

[10] = target: T2, hCB2R; test: ERK1/2 phosphorylation, in-cell western, HEK293A hCB2R-GFP2; assay type: cell-based; parameters: expressed in transfected cells; host or cells: HEK293A cells; HEK-CRE reporter cells for the cAMP luciferase assay; details: indomethacin alone
Procedure: as §2

[11] = tested on: hCB1R; test: Bias analysis by operational model, ΔΔLogR (cAMP–βarrestin2), CHO cells; assay type: cell-based, human; details: reference agonist CP55940
Procedure: Concentration-response curves (CRC) were fit using non-linear regression with variable slope (four parameters) and used to calculate EC50, Emin, and Emax (GraphPad, Prism, v. 8.0). […] Statistical analyses were conducted by Student’s one

[12] = parameters: method as in Remmel et al., 2004; details: ref Remmel et al., 2004; cited from earlier work
[13] = target: T2, hCB2R; test: [35S]GTPγS binding assay, CHO cell membranes; assay type: biochemical; parameters: expressed in transfected cells; HEK-CRE reporter cells for the cAMP luciferase assay; details: data not shown
Procedure: (§4) Human CB1R and CB2R CHO cell membranes (25 μg protein) were preincubated for 30 min at 30°C with adenosine deaminase (0.5 IU/ml). […] Binding was initiated by the addition of [^35S]GTPγS. Non-specific binding was measured in the presence of 30 μM GTPγS. The reaction was terminated by rapid vacuum filtration (50 mM Tris–HCl; 50 mM Tris–Base; 0.1% BSA) using a 24-well sampling manifold (cell harvester; Brandel, Gaithersburg, MD, United States) and GF/B filters (Whatman, Maidstone, United Kingdom) that had been soaked in buffer (50 mM Tris–HCl; 50 mM Tris–Base; 0.1% BSA) for at least 24 h. Each reaction tube was washed six times with a 1.2-mL aliquot of ice-cold wash buffer. The filters were oven-dried for at least 60 min and then placed in 3 mL of scintillation fluid (Ultima Gold XR, PerkinElmer, Cambridge, United Kingdom). Radioactivity was quantified by liquid scintillation spectrometry.

[14] = target: T1, hCB1R; assay type: binding
Procedure: The assay was terminated by rapid filtration onto GF/B filters pre-soaked in assay buffer using a Brandel cell harvester. The filters were washed six times with the ice-cold buffer before being dried in a heated cabinet. Filters were placed in vials to which 3 mL Ultima Gold scintillation fluid was added. The radioactivity in each vial was then counted for 3 min in a Tri-Carb liquid scintillation counter.

[15] = target: T2, hCB2R; test: βarrestin1 recruitment, BRET2, HEK293A hCB2R-GFP2; assay type: cell-based; parameters: expressed in transfected cells; host or cells: HEK293A cells, transient (Lipofectamine 2000); details: indomethacin alone
Procedure: as §3

[16] = target: T1, hCB1R; assay type: cell-based; details: indomethacin alone; remark: listed apart in the source
Procedure: as §2

[17] = target: T2, hCB2R; test: cAMP luciferase reporter assay, HEK-CRE hCB2R-GFP2; assay type: cell-based; parameters: expressed in transfected cells; HEK-CRE reporter cells for the cAMP luciferase assay; details: indomethacin alone
Procedure: (§5) HEK-CRE cells were transfected with CB1R-GFP^2 or CB2R-GFP^2. Forty-eight hours post-transfection cells were washed twice with cold PBS and suspended in BRET buffer. Cells were dispensed into 96-well plates (10,000 cells/well) and treated with 10 μM forskolin and ligands (PerkinElmer). Media was aspirated from cells and cells were lysed with passive lysis buffer for 20 min at room temperature (Promega, Oakville, ON, Canada).

[18] = target: T1, hCB1R; test: [35S]GTPγS binding assay, CHO cell membranes; assay type: biochemical; details: 1 μM indomethacin in the presence of 1 nM and 10 μM AEA
Procedure: as §4

[19] = target: T1, hCB1R; assay type: cell-based; details: indomethacin alone; remark: listed apart in the source
Procedure: as §5

[20] = tested on: CB1R; parameters: method as in Pamplona et al., 2012; details: PAM of ligand binding and cAMP inhibition at CB1R; ref Pamplona et al., 2012; cited from earlier work

T2 sequence (P34972 whole entry): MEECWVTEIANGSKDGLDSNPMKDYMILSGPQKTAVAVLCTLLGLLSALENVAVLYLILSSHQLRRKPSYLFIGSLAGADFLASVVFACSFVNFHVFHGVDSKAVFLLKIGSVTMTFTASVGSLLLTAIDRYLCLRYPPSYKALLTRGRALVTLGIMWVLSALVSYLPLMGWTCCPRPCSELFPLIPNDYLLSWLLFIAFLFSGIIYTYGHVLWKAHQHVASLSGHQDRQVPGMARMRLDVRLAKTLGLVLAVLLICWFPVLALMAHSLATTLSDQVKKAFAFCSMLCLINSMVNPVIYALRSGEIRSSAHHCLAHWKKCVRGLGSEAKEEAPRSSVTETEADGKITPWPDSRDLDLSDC
T1 sequence (P21554 whole entry): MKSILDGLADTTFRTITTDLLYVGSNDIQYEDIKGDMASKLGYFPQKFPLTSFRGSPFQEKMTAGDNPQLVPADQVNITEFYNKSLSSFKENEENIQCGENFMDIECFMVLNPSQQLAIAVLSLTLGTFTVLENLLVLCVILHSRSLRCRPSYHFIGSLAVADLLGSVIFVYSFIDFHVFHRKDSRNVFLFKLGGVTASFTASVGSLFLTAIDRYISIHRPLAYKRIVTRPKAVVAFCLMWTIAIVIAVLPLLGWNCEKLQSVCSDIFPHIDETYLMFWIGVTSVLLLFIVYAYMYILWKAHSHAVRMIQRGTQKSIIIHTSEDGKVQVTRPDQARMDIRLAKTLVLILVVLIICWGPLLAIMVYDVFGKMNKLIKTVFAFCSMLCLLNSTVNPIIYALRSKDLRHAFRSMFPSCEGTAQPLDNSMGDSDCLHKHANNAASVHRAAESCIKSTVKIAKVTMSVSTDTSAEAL

C=C(C)[C@@H]1CCC(C)=C[C@H]1c1c(O)cc(CCCCC)cc1O [CBD, cannabidiol]
concentrations that reduce CP55940 binding [1]: > 1 µM

CCCCCCC(C)(C)c1ccc([C@@H]2C[C@H](O)CC[C@H]2CCCO)c(O)c1 [CP55940, (-)-cis-3-[2-Hydroxy-4-(1,1-dimethylheptyl)phenyl]-trans-4-(3-hydroxypropyl)cyclohexanol]
tail flick latency compared to vehicle [2]: increased
catalepsy [3]: increased
locomotion (distance traveled in the open field) compared to vehicle ([4]; CP55940 0.1 mg/kg i.p., 1 and 4 h): reduced
body temperature compared to vehicle [5]: reduced

COc1ccc2c(c1)c(CC(=O)O)c(C)n2C(=O)c1ccc(Cl)cc1 [Indomethacin, indomethacin]
[3H]CP55940 binding to hCB1R [6]: enhanced
hCB2R-dependent PLCβ3 phosphorylation [7]: did not alter
AEA-dependent hypolocomotion, anti-nociception, hypothermia, and immobility [8]: enhanced
hCB1R-dependent βarrestin1 recruitment [9]: did not alter
hCB2R-dependent ERK1/2 phosphorylation [10]: did not alter
bias between cAMP inhibition and βarrestin2 recruitment (ΔΔLogR) ([11]; indomethacin in the presence of AEA): selectively enhance inhibition of cAMP
bias between cAMP inhibition and βarrestin2 recruitment (ΔΔLogR) ([11]; indomethacin in the presence of CP55940): did not display bias
t1/2 in mouse [12]: 51 min
tail flick latency compared to CP55940 or indomethacin alone ([2]; CP55940 0.1 mg/kg + indomethacin 4 mg/kg i.p., 1 h): increased
tail flick latency compared to vehicle [2]: increased
[35S]GTPγS binding to hCB2R [13]: did not effect
catalepsy time compared to CP55940 alone ([3]; 2 and 4 mg/kg indomethacin with CP55940 0.1 mg/kg i.p., 1 h): significantly increased
catalepsy [3]: not
rate of dissociation of [3H]CP55940 compared to vehicle ([14]; 1 μM indomethacin): did not change
t1/2 (min) (95% CI) of [3H]CP55940 dissociation ([14]; +1 μM indomethacin, 24°C, dissociation started with 1 μM unlabeled CP55940): 4.67 (3.17–8.80) min
hCB2R-dependent βarrestin1 recruitment [15]: did not alter
hCB1R-dependent ERK1/2 phosphorylation [16]: did not alter
hCB1R-dependent PLCβ3 phosphorylation [16]: did not alter
hCB2R-dependent cAMP inhibition [17]: did not alter
locomotion compared to CP55940 or indomethacin alone ([4]; CP55940 0.1 mg/kg + indomethacin 4 mg/kg i.p., 4 h): further reduced
body temperature compared to CP55940 or indomethacin alone ([5]; CP55940 0.1 mg/kg + indomethacin 4 mg/kg i.p.): further reduced
body temperature compared to vehicle [5]: reduced
[35S]GTPγS binding to hCB1R [18]: enhanced
hCB1R-dependent cAMP levels [19]: did not alter

CCCCC[C@H](O)/C=C/C=C\C=C\C=C\[C@@H](O)[C@@H](O)CCCC(=O)O [Lipoxin A4, lipoxin A4]
potency in vitro [20]: high micromolar
